{"source": "patent US20240172756A1", "about": "“ORGANOANTIMONY(V) C[…] AND METHODS OF PRODUCTION AND USE THEREOF” (priority 2021, published 2024)", "key": {"Cryptococcus neoformans [1]": {"test_system": "Cryptococcus neoformans", "conditions": "reference value; organism not given; cited from earlier work"}, "Cryptococcus neoformans [2]": {"test_system": "Cryptococcus neoformans", "test": "MIC assay, C. neoformans", "assay_type": "cell-based", "conditions": "Table 1", "procedure": "(§1) To determine the antifungal properties of the two groups of Sb(V) cyanoximaes, Cryptococcus neoformans and Candida albicans, both of which are deadly human pathogens, were tested.\n(§2) MIC of the 3rd generation compounds, as well as complete MIC measurements for the 2nd generation Sb(V) compounds, are determined. A dilution assay in a 96-well-plate format, the gold standard for measuring MICS recommended by the Clinical Laboratory Standards Institute (CLSI), is utilized. Prior to plate inoculation, bacterial cultures of P. aeruginosa PAO1, S. aureus NRS70, E. foecium CC17, and E. coli S17 are grown in Mueller Hinton Broth (MHB) to middle log phase as determined by the individual growth curves and diluted to obtain absorbance at 600 nm of 0.1. These normalized cultures are diluted 1:100 using MHB and inoculated into the fresh medium with serially diluted Sb(V) compounds in 96-well plates. The plates are incubated for 24 h at 37° C. For fungal pathogens, cultures of Cryptococcus neoformans strain H99 and Candida albicans strain SC5314 are grown to stationary phase in YPD medium for 18 h at 30° C. Following incubation, fungal cells are centrifuged, washed three times with PBS, and then counted with trypan blue exclusion. Each compound is screened using a microdilution assay with 0.5×10^3 fungal cells in RPMI-MOPS medium at 35° C. for 48 h. Following incubations for bacterial or fungal pathogens, the OD600 is measured using a Biotek Synergy HT microtiter plate reader ([…].). The MIC is defined as the lowest concentration that inhibits growth. An aliquot from the clear wells from the MIC assay is plated on agar to determine minimum bactericidal concentration (MBC) or minimum fungicidal concentration (MFC). Each experiment is based on at least three biological replicates and repeated for consistency. The MIC and MBC for each compound is compared to those obtained for clinically applied antibiotics/antifungals. For bacterial pathogens, the corresponding antibiotics, such as tobramycin (P. aeruginosa), trimethoprim (S. aureus), gentamicin (E. coli) and ampicillin (E. foecium), are used. For fungal pathogens, the data is compared to the antifungal drugs Amphotericin B and Caspofungin for C. neoformans and C. albicans, respectively, by using the CLSI method.\n(§3) Second, the compounds were dissolved in DMSO to […], and their minimal inhibitory concentration (MIC) was determined against C. neoformans and C. albicans. Starting concentration used was 100 μg/ml, and then diluted 1:2.\n(§4) MIC assays: The MIC assay protocol utilized for determination of the effects of various organoantimony(V) cyanoximate compounds in various bacteria is shown in FIG. 16. Each solubilized in DMSO at 5 mg/ml, starting concentration is 100 μg/ml. Error bars represent standard error of the mean (if none, the values were identical in each experiment). Untested compounds have no bar. Bars reaching 100 μg/ml were not considered to have antifungal activity."}, "Cryptococcus neoformans [3]": {"test_system": "Cryptococcus neoformans", "test": "Antifungal disk diffusion assay, C. neoformans", "assay_type": "cell-based", "conditions": "solid compound on paper disk", "procedure": "as §1\n(§5) First, solid state powder compounds were deposited on paper disks and tested against two fungi: Cryptococcus neoformans and Candia albicans. Each experiment was conducted in triplicate with each compound at each concentration of deposited solid compound. The control was a blank paper (100% cotton disk).\n(§6) Disk diffusion assays: No inhibition of Cryptococcus neoformans or Candida albicans for the following organoantimony(V) cyanoximate compounds at any concentration (S, ×2, ×4): H(ACO), H(ECO), H(MCO)."}, "Candida albicans [4]": {"test_system": "Candida albicans", "test": "MIC assay, C. albicans", "assay_type": "cell-based", "conditions": "Table 1", "procedure": "as §1, §2, §3, §4"}, "[5]": {"test_system": "Staphylococcus aureus MRSA", "test": "Broth dilution assay, S. aureus MRSA", "assay_type": "cell-based", "conditions": "multi-drug resistant strain, FIG. 20", "excerpt": "As shown in FIGS. 20-21, compounds containing Sb display higher bactericidal activity against Gram positive Staphylococcus aureus (FIG. 20) than Gram negative E. coli (FIG. 21). […] In addition, 25-40% reduction of growth was also observed for Sb(Ph4)Br, Sb(Ph4)ECO, Sb(Ph4)ACO, and Sb(Ph4)TCO against Gram negative E. coli (FIG. 21)."}, "Candida albicans [6]": {"test_system": "Candida albicans", "test": "Antifungal disk diffusion assay, C. albicans", "assay_type": "cell-based", "conditions": "solid compound on paper disk", "procedure": "as §1, §5, §6"}, "Staphylococcus aureus": {"test_system": "Staphylococcus aureus", "test": "MIC in liquid culture, S. aureus", "assay_type": "cell-based", "procedure": "(§7) To determine the antimicrobial potential of the two generations (G1—based on SbPh4-core, and G2—based on SbMe3-core) of newly synthesized Sb(V) cyanoximates, several representative compounds were first selected and their antimicrobial properties tested by using disk diffusion assays, The minimal inhibitory concentrations (MIC) of selected compounds were also determined in liquid cultures. Three bacterial and two fungal pathogens were used as target microorganisms. Bacterial pathogens included Gram-negative Pseudomonas aeruginosa and Gram-positive Staphylococcus aureus, representing the ESKAPE group of human pathogens known for their high virulence and antibiotic resistance.\nas §2\n(§8) Two different types of antimicrobial studies were performed: 1) paper disk studies during growth on solid media; and 2) MIC determination during growth in liquid media. […] Antifungal disk assays concluded that Sb(Ph)4 (ECO) was effective against Cryptococcus neoformans and Candida albicans. […] For MIC assays, Sb(Ph)4 (MCO), the Sb(V) cyanoximate, was tested, along with the free cyanoximes H(MCO), H(ECO), and Na[H(ACO)2].\nas §4"}, "Pseudomonas aeruginosa": {"test_system": "Pseudomonas aeruginosa", "test": "MIC in liquid culture, P. aeruginosa", "assay_type": "cell-based", "procedure": "as §7, §2, §8, §4"}, "Escherichia coli": {"test_system": "Escherichia coli", "test": "MIC in liquid culture, E. coli", "assay_type": "cell-based", "procedure": "as §7, §2, §8, §4"}}, "data": [{"molecule": "C[C@@H]1[C@H](O)[C@@H](C)/C=C/C=C/C=C/C=C/C=C/C=C/C=C/[C@H](O[C@@H]2O[C@H](C)[C@@H](O)[C@H](N)[C@@H]2O)C[C@@H]2O[C@](O)(C[C@@H](O)C[C@@H](O)[C@H](O)CC[C@@H](O)C[C@@H](O)CC(=O)O[C@H]1C)C[C@H](O)[C@H]2C(=O)O", "note": "[Amphotericin B]", "values": [{"measurement": "MIC concentration (for reference)", "setting": "Cryptococcus neoformans [1]", "value": 0.5, "unit": "µg/mL"}]}, {"molecule": "N#CC(=N[O][Sb]([c]1ccccc1)([c]1ccccc1)([c]1ccccc1)[c]1ccccc1)C(N)=S", "note": "[SbPh4TCO]", "values": [{"measurement": "MIC, C. neoformans", "setting": "Cryptococcus neoformans [2]", "value": 25, "unit": "µg/mL"}, {"measurement": "antifungal activity / zone of inhibition in disk assay", "setting": "Cryptococcus neoformans [3]", "value": "followed in antifungal activity against both strains"}, {"measurement": "MIC, C. albicans", "setting": "Candida albicans [4]", "value": 100, "unit": "µg/mL"}, {"measurement": "bactericidal activity", "setting": "[5]", "value": "significant bactericidal activity"}, {"measurement": "antifungal activity / zone of inhibition in disk assay", "setting": "Candida albicans [6]", "value": "followed in antifungal activity against both strains"}, {"measurement": "antimicrobial effect", "setting": "Staphylococcus aureus; Methicillin-resistant strain NRS70, paper disk and MIC studies", "value": "significant effects"}, {"measurement": "MIC, S. aureus", "setting": "Staphylococcus aureus; Table 1", "value": 100, "unit": "µg/mL"}, {"measurement": "MIC, P. aeruginosa", "setting": "Pseudomonas aeruginosa; Table 1", "value": ">200", "unit": "µg/mL"}, {"measurement": "antimicrobial effect", "setting": "Pseudomonas aeruginosa; strain PAO1, paper disk and MIC studies", "value": "essentially no antimicrobial activity"}, {"measurement": "MIC, E. coli", "setting": "Escherichia coli; Table 1", "value": ">200", "unit": "µg/mL"}, {"measurement": "antimicrobial effect", "setting": "Escherichia coli; strain S17, paper disk and MIC studies", "value": "essentially no antimicrobial activity"}]}]}
